Source: the kinase profiling compilation of Christmann-Franck et al. (2016)

Experiments:
Test in all cases: radiometric filter-binding kinase assay, Kinase HotSpot
Details in all cases: compound 0.5 µM; ATP 10 µM
FES (human) = FES (human) (UniProt P07332)
CAMK2B (human) = CAMK2B (human) (UniProt Q13554)
RIPK2 (human) = RIPK2 (human) (UniProt O43353)
SRPK3 (human) = SRPK3 (human) (UniProt Q9UPE1)
MAPK10 (human) = MAPK10 (human) (UniProt P53779)
STK10 (human) = STK10 (human) (UniProt O94804)
TBK1 (human) = TBK1 (human) (UniProt Q9UHD2)
MAPK13 (human) = MAPK13 (human) (UniProt O15264)
MAPKAPK3 (human) = MAPKAPK3 (human) (UniProt Q16644)
TYRO3 (human) = TYRO3 (human) (UniProt Q06418)
BRSK2 (human) = BRSK2 (human) (UniProt Q8IWQ3)
RPS6KA2 KD1 KD2 (human) = RPS6KA2 KD1 KD2 (human) (UniProt Q15349)
NTRK1 (human) = NTRK1 (human) (UniProt P04629)
DCLK2 (human) = DCLK2 (human) (UniProt Q8N568)
RPS6KA4 KD2 (human) = RPS6KA4 KD2 (human) (UniProt O75676)
MET (human) = MET (human) (UniProt P08581)
PTK2 (human) = PTK2 (human) (UniProt Q05397)
CSNK1G2 (human) = CSNK1G2 (human) (UniProt P78368)
TTK (human) = TTK (human) (UniProt P33981)
ABL1 (human) = ABL1 (human) (UniProt P00519)
NEK2 (human) = NEK2 (human) (UniProt P51955)
STK39 (human) = STK39 (human) (UniProt Q9UEW8)
PRKCB2 (human) = PRKCB2 (human) (UniProt P05771)
DAPK3 (human) = DAPK3 (human) (UniProt O43293)
FYN (human) = FYN (human) (UniProt P06241)
MINK1 (human) = MINK1 (human) (UniProt Q8N4C8)
ROS1 (human) = ROS1 (human) (UniProt P08922)
LRRK2 (human) = LRRK2 (human) (UniProt Q5S007)
EPHB3 (human) = EPHB3 (human) (UniProt P54753)
CLK1 (human) = CLK1 (human) (UniProt P49759)
CDK2 CCNA2 (human) = CDK2 CCNA2 (human) (UniProt P24941+P20248)
CDK2 CCNE1 (human) = CDK2 CCNE1 (human) (UniProt P24941+P24864)
BLK (human) = BLK (human) (UniProt P51451)
ROCK1 (human) = ROCK1 (human) (UniProt Q13464)
AURKA (human) = AURKA (human) (UniProt O14965)
TSSK1B (human) = TSSK1B (human) (UniProt Q9BXA7)
MAPK9 (human) = MAPK9 (human) (UniProt P45984)
IGF1R (human) = IGF1R (human) (UniProt P08069)

Sequence of ROCK1 (human) (Q13464 whole entry, looked up): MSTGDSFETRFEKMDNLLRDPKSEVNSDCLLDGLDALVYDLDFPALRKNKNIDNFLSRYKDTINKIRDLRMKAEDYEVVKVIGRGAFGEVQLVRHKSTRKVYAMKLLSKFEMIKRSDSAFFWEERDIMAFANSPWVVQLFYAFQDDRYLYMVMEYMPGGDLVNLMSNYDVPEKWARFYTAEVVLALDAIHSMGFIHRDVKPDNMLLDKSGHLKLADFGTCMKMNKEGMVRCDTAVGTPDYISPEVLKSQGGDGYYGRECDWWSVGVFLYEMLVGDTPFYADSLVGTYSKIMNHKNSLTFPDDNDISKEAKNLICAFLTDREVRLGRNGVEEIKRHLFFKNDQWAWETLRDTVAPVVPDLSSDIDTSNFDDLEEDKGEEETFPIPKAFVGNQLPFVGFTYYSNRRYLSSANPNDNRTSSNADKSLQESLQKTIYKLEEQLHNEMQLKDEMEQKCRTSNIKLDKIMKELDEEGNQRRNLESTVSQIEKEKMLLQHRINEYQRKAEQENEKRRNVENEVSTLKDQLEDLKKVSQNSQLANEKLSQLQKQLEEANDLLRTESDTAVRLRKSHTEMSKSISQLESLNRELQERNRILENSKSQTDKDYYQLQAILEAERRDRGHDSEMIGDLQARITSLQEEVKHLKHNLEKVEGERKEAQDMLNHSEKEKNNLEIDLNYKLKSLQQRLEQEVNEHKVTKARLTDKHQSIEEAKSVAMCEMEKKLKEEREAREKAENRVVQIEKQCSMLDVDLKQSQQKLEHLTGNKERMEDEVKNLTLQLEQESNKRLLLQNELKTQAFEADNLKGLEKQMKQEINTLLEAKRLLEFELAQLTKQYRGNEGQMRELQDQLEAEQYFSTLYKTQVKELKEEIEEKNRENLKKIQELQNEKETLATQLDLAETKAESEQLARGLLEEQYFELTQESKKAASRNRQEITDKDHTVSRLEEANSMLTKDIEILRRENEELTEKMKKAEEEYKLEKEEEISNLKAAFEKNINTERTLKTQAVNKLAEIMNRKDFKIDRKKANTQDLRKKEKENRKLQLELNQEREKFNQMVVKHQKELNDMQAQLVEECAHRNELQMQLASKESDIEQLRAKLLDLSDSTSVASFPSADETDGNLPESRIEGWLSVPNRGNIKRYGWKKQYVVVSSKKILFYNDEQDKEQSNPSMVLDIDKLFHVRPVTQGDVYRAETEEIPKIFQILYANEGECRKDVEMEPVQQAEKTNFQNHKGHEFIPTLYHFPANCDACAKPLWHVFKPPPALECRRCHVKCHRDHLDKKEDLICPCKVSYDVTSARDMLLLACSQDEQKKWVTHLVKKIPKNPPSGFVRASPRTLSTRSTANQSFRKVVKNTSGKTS
Sequence of MAPKAPK3 (human) (Q16644 whole entry, looked up): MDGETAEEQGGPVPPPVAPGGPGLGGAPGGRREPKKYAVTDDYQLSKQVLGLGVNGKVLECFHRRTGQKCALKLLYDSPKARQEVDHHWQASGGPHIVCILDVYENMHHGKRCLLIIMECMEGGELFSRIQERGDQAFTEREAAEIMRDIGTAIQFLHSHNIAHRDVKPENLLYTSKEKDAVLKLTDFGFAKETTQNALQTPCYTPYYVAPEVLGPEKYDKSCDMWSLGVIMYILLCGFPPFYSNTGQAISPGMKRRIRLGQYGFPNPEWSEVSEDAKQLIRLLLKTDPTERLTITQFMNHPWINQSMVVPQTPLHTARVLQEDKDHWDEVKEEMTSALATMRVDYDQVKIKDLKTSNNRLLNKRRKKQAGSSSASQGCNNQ
Sequence of ABL1 (human) (P00519 whole entry, looked up): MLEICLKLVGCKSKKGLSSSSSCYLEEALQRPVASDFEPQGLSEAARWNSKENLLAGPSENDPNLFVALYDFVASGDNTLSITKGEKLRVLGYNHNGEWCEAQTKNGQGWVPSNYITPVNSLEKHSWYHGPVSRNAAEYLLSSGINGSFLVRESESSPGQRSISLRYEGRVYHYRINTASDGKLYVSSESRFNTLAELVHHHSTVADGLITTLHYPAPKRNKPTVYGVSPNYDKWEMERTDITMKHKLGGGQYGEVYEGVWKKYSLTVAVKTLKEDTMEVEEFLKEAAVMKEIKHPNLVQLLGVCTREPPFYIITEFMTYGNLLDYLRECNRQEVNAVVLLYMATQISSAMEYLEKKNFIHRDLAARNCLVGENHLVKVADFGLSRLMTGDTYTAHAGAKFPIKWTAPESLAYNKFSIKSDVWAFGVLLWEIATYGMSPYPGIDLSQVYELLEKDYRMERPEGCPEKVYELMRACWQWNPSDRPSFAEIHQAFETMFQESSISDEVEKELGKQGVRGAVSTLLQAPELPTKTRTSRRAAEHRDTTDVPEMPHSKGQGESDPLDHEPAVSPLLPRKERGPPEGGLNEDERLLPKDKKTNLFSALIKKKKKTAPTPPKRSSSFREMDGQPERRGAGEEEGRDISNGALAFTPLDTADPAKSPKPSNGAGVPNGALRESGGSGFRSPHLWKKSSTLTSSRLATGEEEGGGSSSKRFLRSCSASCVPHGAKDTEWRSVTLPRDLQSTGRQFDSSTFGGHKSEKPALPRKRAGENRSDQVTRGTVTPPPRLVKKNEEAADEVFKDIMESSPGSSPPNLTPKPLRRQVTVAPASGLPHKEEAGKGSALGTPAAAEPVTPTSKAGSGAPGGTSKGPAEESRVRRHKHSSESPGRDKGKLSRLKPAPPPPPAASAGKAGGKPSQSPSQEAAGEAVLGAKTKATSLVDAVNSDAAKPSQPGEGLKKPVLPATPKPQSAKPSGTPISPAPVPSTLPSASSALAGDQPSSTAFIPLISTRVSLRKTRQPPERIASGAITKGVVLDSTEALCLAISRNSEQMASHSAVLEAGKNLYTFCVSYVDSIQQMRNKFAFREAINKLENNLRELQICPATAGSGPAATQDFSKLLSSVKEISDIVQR
Sequence of MAPK9 (human) (P45984 whole entry, looked up): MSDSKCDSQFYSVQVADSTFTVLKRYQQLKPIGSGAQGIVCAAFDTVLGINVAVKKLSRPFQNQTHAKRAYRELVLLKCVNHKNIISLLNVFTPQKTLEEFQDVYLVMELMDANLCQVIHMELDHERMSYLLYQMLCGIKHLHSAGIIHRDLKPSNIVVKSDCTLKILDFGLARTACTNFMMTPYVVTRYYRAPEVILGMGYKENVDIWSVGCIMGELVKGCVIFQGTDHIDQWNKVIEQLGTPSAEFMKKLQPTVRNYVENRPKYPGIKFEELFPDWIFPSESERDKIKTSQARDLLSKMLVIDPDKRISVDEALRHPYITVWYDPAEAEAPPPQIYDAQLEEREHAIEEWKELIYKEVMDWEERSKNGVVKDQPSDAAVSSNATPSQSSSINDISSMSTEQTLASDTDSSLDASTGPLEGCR
Sequence of PTK2 (human) (Q05397 whole entry, looked up): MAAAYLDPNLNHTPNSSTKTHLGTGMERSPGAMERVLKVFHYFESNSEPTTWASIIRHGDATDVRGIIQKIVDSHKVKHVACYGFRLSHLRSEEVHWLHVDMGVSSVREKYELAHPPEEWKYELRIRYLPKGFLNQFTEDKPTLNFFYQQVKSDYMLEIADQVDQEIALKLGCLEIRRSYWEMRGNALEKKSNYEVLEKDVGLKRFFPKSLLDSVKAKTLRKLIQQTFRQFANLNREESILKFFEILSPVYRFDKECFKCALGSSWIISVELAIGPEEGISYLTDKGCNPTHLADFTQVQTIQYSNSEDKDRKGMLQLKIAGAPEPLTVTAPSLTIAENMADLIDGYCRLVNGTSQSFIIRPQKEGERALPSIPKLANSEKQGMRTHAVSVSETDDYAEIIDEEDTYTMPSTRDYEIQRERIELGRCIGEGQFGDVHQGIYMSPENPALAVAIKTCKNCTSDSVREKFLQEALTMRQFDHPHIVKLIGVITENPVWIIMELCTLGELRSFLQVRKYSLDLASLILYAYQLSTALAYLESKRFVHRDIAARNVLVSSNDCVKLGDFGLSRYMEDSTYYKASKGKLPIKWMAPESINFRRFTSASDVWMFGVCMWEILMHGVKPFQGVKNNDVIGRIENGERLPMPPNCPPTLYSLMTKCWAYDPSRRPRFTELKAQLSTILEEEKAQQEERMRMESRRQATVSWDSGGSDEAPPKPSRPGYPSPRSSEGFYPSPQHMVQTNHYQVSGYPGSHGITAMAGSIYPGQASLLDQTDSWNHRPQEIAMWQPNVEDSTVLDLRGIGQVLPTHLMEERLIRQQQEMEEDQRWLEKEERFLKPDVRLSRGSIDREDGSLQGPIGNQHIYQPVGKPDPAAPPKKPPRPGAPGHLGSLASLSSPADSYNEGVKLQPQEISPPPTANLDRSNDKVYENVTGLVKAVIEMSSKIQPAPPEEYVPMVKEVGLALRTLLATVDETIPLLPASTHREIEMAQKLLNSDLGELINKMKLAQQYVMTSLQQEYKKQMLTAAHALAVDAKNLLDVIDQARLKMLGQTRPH
Sequence of CDK2 CCNA2 (human) (P20248 whole entry, looked up, other chains not shown): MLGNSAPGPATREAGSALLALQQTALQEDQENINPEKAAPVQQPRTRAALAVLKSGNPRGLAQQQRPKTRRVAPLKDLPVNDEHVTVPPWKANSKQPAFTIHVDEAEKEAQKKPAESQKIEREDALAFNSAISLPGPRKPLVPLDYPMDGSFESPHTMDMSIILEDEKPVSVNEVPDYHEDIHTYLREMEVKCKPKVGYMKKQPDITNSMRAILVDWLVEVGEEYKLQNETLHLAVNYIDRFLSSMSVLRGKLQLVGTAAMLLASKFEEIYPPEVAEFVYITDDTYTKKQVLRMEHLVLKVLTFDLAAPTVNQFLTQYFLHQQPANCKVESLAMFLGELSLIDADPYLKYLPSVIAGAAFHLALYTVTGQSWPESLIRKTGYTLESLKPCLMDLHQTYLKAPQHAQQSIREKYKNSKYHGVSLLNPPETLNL

Row | SMILES | residual activity (CAMK2B (human)) | residual activity (RIPK2 (human)) | residual activity (MAPK10 (human)) | residual activity (STK10 (human)) | residual activity (MAPK13 (human)) | residual activity (MAPKAPK3 (human)) | residual activity (TYRO3 (human)) | residual activity (BRSK2 (human)) | residual activity (RPS6KA2 KD1 KD2 (human)) | residual activity (NTRK1 (human)) | residual activity (DCLK2 (human)) | residual activity (RPS6KA4 KD2 (human)) | residual activity (PTK2 (human)) | residual activity (CSNK1G2 (human)) | residual activity (TTK (human)) | residual activity (ABL1 (human)) | residual activity (NEK2 (human)) | residual activity (STK39 (human)) | residual activity (PRKCB2 (human)) | residual activity (DAPK3 (human)) | further results
1 | O=c1cc(N2CCOCC2)oc2c1ccc1ccccc12 | 98.1% | 104% | 73.8% | 96.9% | 99.8% | 105% | 97.3% | 92.6% | 98.8% | 96.4% | 100% | 99.4% | 108% | 102% | 103% | 104% | 94.8% | 95.7% | 99.9% | 94.6% | residual activity (FES (human)): 100%; residual activity (SRPK3 (human)): 105%; residual activity (TBK1 (human)): 102%; residual activity (MET (human)): 161%; residual activity (FYN (human)): 113%; residual activity (MINK1 (human)): 96%; residual activity (ROS1 (human)): 97%; residual activity (LRRK2 (human)): 96.9%; residual activity (EPHB3 (human)): 90%; residual activity (CLK1 (human)): 98.3%; residual activity (CDK2 CCNA2 (human)): 100%; residual activity (CDK2 CCNE1 (human)): 119%; residual activity (BLK (human)): 104%; residual activity (ROCK1 (human)): 94.2%; residual activity (AURKA (human)): 98%; residual activity (TSSK1B (human)): 101%; residual activity (MAPK9 (human)): 101%
2 | CC[n+]1c(/C=C/N(C)c2ccccc2)n(-c2ccccc2)c2ccc(-c3nc4ccccc4s3)cc21 | 103% | 88.6% | 92.7% | 101% | 102% | 100% | 103% | 95.7% | 101% | 99.1% | 102% | 94.6% | 108% | 101% | 96.6% | 96.7% | 100% | 81.1% | 118% | 95.4% | residual activity (FES (human)): 101%; residual activity (TBK1 (human)): 95.7%; residual activity (MET (human)): 108%; residual activity (FYN (human)): 99.2%; residual activity (IGF1R (human)): 93%; residual activity (MINK1 (human)): 99%; residual activity (ROS1 (human)): 99.1%; residual activity (LRRK2 (human)): 95.5%; residual activity (EPHB3 (human)): 102%; residual activity (CLK1 (human)): 108%; residual activity (CDK2 CCNA2 (human)): 100%; residual activity (CDK2 CCNE1 (human)): 92.9%; residual activity (BLK (human)): 99.1%; residual activity (ROCK1 (human)): 98.1%; residual activity (AURKA (human)): 88.1%; residual activity (TSSK1B (human)): 102%; residual activity (MAPK9 (human)): 94.6%
3 | O=S(=O)(c1cccc2cnccc12)N1CCCNCC1 | 93.2% | 86.4% | 85.3% | 103% | 98.8% | 99.7% | 87.9% | 91.7% | 79.9% | 89.6% | 83.9% | 81.8% | 93.9% | 93.7% | 99.1% | 96.8% | 92.3% | 103% | 101% | 93% | residual activity (FES (human)): 121%; residual activity (SRPK3 (human)): 96.4%; residual activity (FYN (human)): 106%; residual activity (IGF1R (human)): 112%; residual activity (MINK1 (human)): 96.6%; residual activity (ROS1 (human)): 101%; residual activity (LRRK2 (human)): 94.2%; residual activity (EPHB3 (human)): 95.4%; residual activity (CLK1 (human)): 96.3%; residual activity (BLK (human)): 85.3%; residual activity (ROCK1 (human)): 60.2%; residual activity (AURKA (human)): 101%; residual activity (TSSK1B (human)): 93.5%; residual activity (MAPK9 (human)): 87%
4 | COc1ccc(COc2ccc(Cc3cnc(N)nc3N)cc2OC)cc1 | 100% | 81.9% | 84.4% | 100% | 96% | 96% | 110% | 96.8% | 105% | 51.3% | 101% | 107% | 95.5% | 101% | 105% | 102% | 99.2% | 87.6% | 110% | 104% | residual activity (SRPK3 (human)): 102%; residual activity (TBK1 (human)): 103%; residual activity (MET (human)): 76.1%; residual activity (FYN (human)): 102%; residual activity (IGF1R (human)): 123%; residual activity (MINK1 (human)): 86.5%; residual activity (ROS1 (human)): 99.9%; residual activity (LRRK2 (human)): 92.6%; residual activity (EPHB3 (human)): 91.8%; residual activity (CLK1 (human)): 103%; residual activity (BLK (human)): 98.6%; residual activity (ROCK1 (human)): 100%; residual activity (AURKA (human)): 105%; residual activity (TSSK1B (human)): 95.2%; residual activity (MAPK9 (human)): 106%
5 | O=C(Nc1cccc(Nc2nccc(Nc3cccc(C(F)(F)F)c3)n2)c1)C1CC1 | 102% | 81.6% | 99% | 90.1% | 99.6% | 93% | 93.8% | 89.3% | 101% | 98.1% | 97.4% | 104% | 89.1% | 101% | 92.1% | 94.9% | 95.3% | 94.1% | 98% | 94.3% | residual activity (FES (human)): 94.3%; residual activity (SRPK3 (human)): 101%; residual activity (TBK1 (human)): 91%; residual activity (MET (human)): 87.7%; residual activity (FYN (human)): 54.1%; residual activity (IGF1R (human)): 95.7%; residual activity (MINK1 (human)): 108%; residual activity (ROS1 (human)): 65.5%; residual activity (LRRK2 (human)): 93.7%; residual activity (EPHB3 (human)): 100%; residual activity (CLK1 (human)): 102%; residual activity (CDK2 CCNA2 (human)): 98.2%; residual activity (CDK2 CCNE1 (human)): 85.1%; residual activity (BLK (human)): 99.8%; residual activity (ROCK1 (human)): 101%; residual activity (TSSK1B (human)): 100%; residual activity (MAPK9 (human)): 98.7%
